Assay results taken from ChEMBL document CHEMBL3507680, “University of Dundee, Gates Library screen for HepG2 cell viability”.

Assay: Human HepG2 cell viability assay in 384 well format
Format: toxicity, cell-based
Design: dose 125 nL, time 70.5 hour; concentration not given beside the values
Conditions: HepG2 cells, read-out: Inhibition
For `CN(Cc1ccccc1)C(=O)CN1CCOC(Cn2cncn2)C1` (centres undefined), the cytotoxicity at 70.5 h was -6.53%.
In the case of `CCCNC(=O)C1CCCN(Cc2csc(C(C)(C)C)n2)C1` (centres undefined), the cytotoxicity at 70.5 h is reported as 17.8%.
Work on `COCCCN1CCCC1c1noc(C2CC2)n1` (centres undefined) yielded a cytotoxicity at 70.5 h of 23.8%.
Work on `c1ccc(Cc2nnc(CN3CCOC(Cn4cccn4)C3)o2)cc1` (centres undefined) yielded a cytotoxicity at 70.5 h of 0.701%.
In the case of `CCn1cc(NC(=O)NCC(C)N(C)C2CC2)cn1` (centres undefined), the cytotoxicity at 70.5 h is reported as -4.71%.
With `CCc1n[nH]c(C2CN(Cc3nnc(C4CCC4)o3)CCO2)n1` (centres undefined) the cytotoxicity at 70.5 h was -7.61%.
In the case of `CCN1CCN(C2CCN(Cc3nc(C)c(C)o3)CC2)C1=O`, the cytotoxicity at 70.5 h is reported as -3.68%.
For `Clc1snnc1CN1CCCCC1Cn1cccn1` (centres undefined), the cytotoxicity at 70.5 h was 26.2%.
Work on `c1ncn(CC2CCCCN2Cc2csc(-c3ccsc3)n2)n1` (centres undefined) yielded a cytotoxicity at 70.5 h of -7.71%.
With `COCc1nc(CN(CC(N)=O)C(C)C)cs1` the cytotoxicity at 70.5 h was -3.43%.
Compound `CCc1n[nH]c(C2CN(Cc3nnc(C4CC4)o3)CCO2)n1` (centres undefined) has a cytotoxicity at 70.5 h of -1.31%.
Compound `Cc1nc(C)n(C2CCCN(C(=O)c3sccc3C)C2)n1` (centres undefined) has a cytotoxicity at 70.5 h of -5.74%.
Work on `COc1cc(C)sc1C(=O)N1CCCC(n2nc(C)nc2C)C1` (centres undefined) yielded a cytotoxicity at 70.5 h of 21.7%.
`CCCc1n[nH]c(C2CN(Cc3nnc(C4CCC4)o3)CCO2)n1` (centres undefined) showed a cytotoxicity at 70.5 h of -5.35%.
In the case of `CC(NC(=O)NCCCc1n[nH]c(N)c1C#N)c1ccc(F)cc1` (centres undefined), the cytotoxicity at 70.5 h is reported as -6.13%.
Compound `CCOc1ncccc1CNC(=O)NCC(O)c1ccccc1OC` (centres undefined) has a cytotoxicity at 70.5 h of -1.39%.
With `Cn1c(NCC(O)c2ccc(F)c(F)c2)c(C#N)c(=O)n(C)c1=O` (centres undefined) the cytotoxicity at 70.5 h was 1.75%.
With `COc1ccccc1C(O)CNC(=O)Nc1ccccn1` (centres undefined) the cytotoxicity at 70.5 h was -5.18%.
In the case of `COc1cc(C(=O)Nc2nc(C)no2)cc(Cl)c1OC`, the cytotoxicity at 70.5 h is reported as -3.51%.
Work on `CCc1nc(CN(C)CC(N)=O)cs1` yielded a cytotoxicity at 70.5 h of -4.25%.
For `COc1ccc(OC)c(C(O)CNC(=O)Nc2cccnc2OC)c1` (centres undefined), the cytotoxicity at 70.5 h was -6.93%.
`COc1ccccc1C(O)CNC(=O)Nc1cccnc1OC` (centres undefined) showed a cytotoxicity at 70.5 h of -3.1%.
In the case of `COc1ccccc1C(O)CNc1c(C#N)c(=O)n(C)c(=O)n1C` (centres undefined), the cytotoxicity at 70.5 h is reported as -0.895%.
Compound `CC(C)c1nc(CN(CC(N)=O)C(C)C)cs1` has a cytotoxicity at 70.5 h of -2.05%.
Work on `CN(C)C(=O)C1CCN(Cc2csc(C(C)(C)C)n2)CC1` yielded a cytotoxicity at 70.5 h of 18%.
In the case of `c1ncn(CC2CCCN2Cc2csc(C3CCCCC3)n2)n1` (centres undefined), the cytotoxicity at 70.5 h is reported as 1.84%.
`Clc1snnc1CN1CCCC1Cn1cccn1` (centres undefined) gave a cytotoxicity at 70.5 h of -1.24%.
In the case of `COc1ccsc1C(=O)N1CCCC(n2nc(C)cc2C)C1` (centres undefined), the cytotoxicity at 70.5 h is reported as -3.66%.
`Cc1nc(CN2CCC(N3CCN(C)C3=O)CC2)no1` showed a cytotoxicity at 70.5 h of 18%.
For `COc1cc(Cl)ccc1C(=O)N1CCCC(n2nc(C)nc2C)C1` (centres undefined), the cytotoxicity at 70.5 h was -0.226%.
With `COc1ccsc1C(=O)N1CCCC(n2cncn2)C1` (centres undefined) the cytotoxicity at 70.5 h was -2.59%.
Compound `CC(C)(C)c1n[nH]c(C2CN(Cc3nnc(C4CC4)o3)CCO2)n1` (centres undefined) has a cytotoxicity at 70.5 h of -6.03%.
For `CCc1nc(CN(C(C)=O)C2CCN(Cc3ccccc3F)C2)no1` (centres undefined), the cytotoxicity at 70.5 h was -7.96%.
Work on `COc1ccccc1OCCNC1CCCN(Cc2noc(C)n2)C1` (centres undefined) yielded a cytotoxicity at 70.5 h of 31.2%.
Work on `CCc1nc(CN(C(C)=O)C2CCN(CC3CCOCC3)C2)no1` (centres undefined) yielded a cytotoxicity at 70.5 h of -9.95%.
Work on `COc1ccc(CCNC2CCCN(Cc3noc(C)n3)C2)cc1` (centres undefined) yielded a cytotoxicity at 70.5 h of -14%.
`O=C1C(NS(=O)(=O)c2ccc(F)cc2)CCN1Cc1ccccc1` (centres undefined) showed a cytotoxicity at 70.5 h of -13.4%.
`COc1ccc(C2=CCN(C(=O)CN(C)S(C)(=O)=O)CC2)cc1` gave a cytotoxicity at 70.5 h of -10.2%.
`COc1ccc(C2=CCN(C(=O)CN(CC(N)=O)C(C)C)CC2)cc1` showed a cytotoxicity at 70.5 h of -4.3%.
`Cc1cc(CN2CCN(CC(O)c3ccc4c(c3)OCO4)CC2)no1` (centres undefined) gave a cytotoxicity at 70.5 h of -10.8%.
Compound `Cc1nc(C)n(CC2CCCN2CCOc2ccccc2C#N)n1` (centres undefined) has a cytotoxicity at 70.5 h of -13.6%.
In the case of `Cc1cc(CN2CCN(CC(O)c3ccc(C)c(C)c3)CC2)no1` (centres undefined), the cytotoxicity at 70.5 h is reported as -7.74%.
Work on `Cc1ccc(S(=O)(=O)NC(=O)COc2cccc(C(N)=O)c2)s1` yielded a cytotoxicity at 70.5 h of -10.7%.
With `Cc1nc(C)n(CC2CCCN2CCCOc2ccc(C#N)cc2)n1` (centres undefined) the cytotoxicity at 70.5 h was -4.85%.
Compound `Cc1nc(C)n(CC2CCCN2CCOc2ccc(F)cc2)n1` (centres undefined) has a cytotoxicity at 70.5 h of -9.83%.
For `Cc1nc(CN2CCCC(NCCOc3ccccc3C#N)C2)no1` (centres undefined), the cytotoxicity at 70.5 h was -2.51%.
Compound `Cc1cc(C)n(C2CCCN(C(=O)Cc3cccs3)C2)n1` (centres undefined) has a cytotoxicity at 70.5 h of 11%.
Work on `CN1CCOC(CNCc2coc(-c3ccccc3Cl)n2)C1` (centres undefined) yielded a cytotoxicity at 70.5 h of 1.39%.
`CCN(CC1CCCO1)C(=O)Nc1cc(C)ccc1S(C)(=O)=O` (centres undefined) gave a cytotoxicity at 70.5 h of -1.66%.
For `O=C(Cc1cccnc1)N1CCCC(n2cncn2)C1` (centres undefined), the cytotoxicity at 70.5 h was -1.4%.
In the case of `COCCOc1cccc(CNCC2CN(C)CCO2)c1` (centres undefined), the cytotoxicity at 70.5 h is reported as -0.0199%.
In the case of `CN1CCOC(CNCc2ccc(OCc3ccccn3)cc2)C1` (centres undefined), the cytotoxicity at 70.5 h is reported as -6.69%.
Work on `Cc1cc(NC(=O)NCC(c2ccccc2)N2CCOCC2)n(C)n1` (centres undefined) yielded a cytotoxicity at 70.5 h of -3.59%.
`Cc1nc(CSCCC(=O)NCc2ccc(N(C)C)cc2)cs1` gave a cytotoxicity at 70.5 h of -3.76%.
With `Cc1cc(NC(=O)NCC(CC(C)C)N2CCOCC2)n(C)n1` (centres undefined) the cytotoxicity at 70.5 h was 2.74%.
In the case of `CCOc1ccc(C#N)cc1NCC(=O)NC1(C#N)CCCC1`, the cytotoxicity at 70.5 h is reported as -6.01%.
Compound `CCNC(=O)NC(=O)CNc1cc(C#N)ccc1OCC` has a cytotoxicity at 70.5 h of -3.61%.
Compound `Cc1nn(C)c(C)c1C1CCCN1C(=O)c1ccc(CN(C)C)cc1` (centres undefined) has a cytotoxicity at 70.5 h of 15.1%.
Work on `CN(Cc1ccc2c(c1)OCCO2)C(=O)NCCc1cnn(C)c1` yielded a cytotoxicity at 70.5 h of 6.83%.
